Measured values from patent US10618914B2 (UNIVERSITY OF PITTSBURGH—OF THE COMMONWEALTH SYSTEM OF …, priority 2015, dated 2020).
Like-named read-outs stand apart in the source and are kept apart here.

Assays:
Type in all cases: cell-based
STAT1 = STAT1 assay (selectivity counter-screen)
STAT3 = experiment: HCS STAT3 assay
Cal33 cells = experiment: Cal33 growth inhibition; conditions: for GI50: Table 5, * average of 2 experiments
[1] = Table 4, read-out: STAT3 IC50 (converted)
[2] = Table 5, * average of 2 experiments
[3] = Table 2, read-out: STAT3 (IC50)
[4] = Table 2, read-out: Cal33 (IC50)
[5] = Table 1, read-out: STAT3 (mean IC50)
[6] = Homo sapiens, CAL-33, Table 1, read-out: Growth Inhibition Cal33 (mean IC50)
[7] = Homo sapiens, CAL-33, Table 2, read-out: Cal33 (IC50)
[8] = FIG. 3, read-out: STAT3 potency (IC50)

| SMILES | IC50 (STAT3; [3]) [µM] | IC50 (Cal33 cells; [4]) [µM] | other results |
| --- | --- | --- | --- |
| CC1=Nn2c(nnc2-c2[nH]nc3c2CCC3)SC1 [12a] | – | – | IC50 (STAT1; Table 4): > 50 µM; IC50 (STAT3; [1]): > 50 µM |
| c1ccc(C2=Nn3c(nnc3-c3[nH]nc4c3CCC4)SC2)cc1 [7a] | – | – | IC50 (STAT1; Table 4): > 50 µM; IC50 (STAT3; [1]): 21.2 ± 23.5 µM |
| CC1=Nn2c(nnc2-c2cc(-c3ccccc3)n[nH]2)SC1 [12b] | – | – | IC50 (STAT1; Table 4): > 50 µM; IC50 (STAT3; [1]): > 50 µM |
| CCC(C)C1Sc2nnc(-c3cc(-c4ccccc4)n[nH]3)n2N=C1c1ccc(OC)cc1 (centres unmarked) [Cmpd 28] | – | – | IC50 (STAT1; [2]): > 50 µM; GI50 (Cal33 cells): 0.5 µM |
| c1cc(C2=Nn3c(nnc3-c3[nH]nc4c3CCC4)SC2)ccn1 [9a] | – | – | IC50 (STAT1; Table 4): > 50 µM; IC50 (STAT3; [1]): > 50 µM |
| Clc1ccc(C2=Nn3c(nnc3-c3cc(-c4ccccc4)n[nH]3)SC2)s1 [10b] | – | – | IC50 (STAT1; Table 4): > 50 µM; IC50 (STAT3; [1]): > 50 µM |
| Clc1cccc(C2=Nn3c(nnc3-c3[nH]nc4c3CCC4)SC2)c1 [6a] | – | – | IC50 (STAT1; Table 4): > 50 µM |
| Clc1ccc(C2=Nn3c(nnc3-c3[nH]nc4c3CCC4)SC2)cc1 [2a] | – | – | IC50 (STAT1; Table 4): > 50 µM |
| c1ccc(-c2cc(-c3nnc4n3N=C(C3CCCCC3)CS4)[nH]n2)cc1 [13b] | – | – | IC50 (STAT1; Table 4): > 50 µM; IC50 (STAT3; [1]): > 50 µM |
| Clc1ccc(C2=Nn3c(nnc3-c3[nH]nc4c3CCC4)SC2)s1 [10a] | – | – | IC50 (STAT1; Table 4): > 50 µM |
| Clc1cccc(C2=Nn3c(nnc3-c3cc(-c4ccccc4)n[nH]3)SC2)c1 [6b] | – | – | IC50 (STAT1; Table 4): 45.9 µM; IC50 (STAT3; [1]): 5.6 µM |
| COc1ccc(C2=Nn3c(nnc3-c3nn(C(=O)OC(C)(C)C)c4c3CCC4)SC2C)cc1 (centres unmarked) [compound 10422] | 34.7 | 0.38 | – |
| CC1Sc2nnc(-c3[nH]nc4c3CCC4)n2N=C1c1ccccc1 (racemic) [compound 10173] | 18.2 | 41.8 | – |
| COc1ccc(C2=Nn3c(nnc3-c3[nH]nc4c3CCC4)SC2C)cc1 (centres unmarked) [UPCDC10262] | 8.8 | – | IC50 (STAT3; [5]): 8.78 µM; IC50 (Cal33 cells; [6]): 0.18 µM; IC50 (Cal33 cells; [7]): 0.18 µM |
| COc1ccc(C2=Nn3c(nnc3-c3cc(-c4ccccc4)n[nH]3)SC2CC(=O)N(C)C)cc1 (centres unmarked) [compound 10425] | 9.9 | 29.3 | IC50 (STAT3; [8]): < 10 µM |
| COC(=O)CC1Sc2nnc(-c3cc(-c4ccccc4)n[nH]3)n2N=C1c1ccc(OC)cc1 (centres unmarked) [compound 10427] | 11.6 | 34.5 | – |
| CCN(CC)c1ccc(C2=Nn3c(nnc3-c3cc(-c4ccccc4)nn3C)SC2C)cc1 (centres unmarked) [compound 10559] | 5.7 | 27.5 | – |
| COc1ccc(C2=Nn3c(nnc3-c3[nH]nc4c3CSC4)SC2C)cc1 (centres unmarked) [compound 10435] | 33.9 | 0.63 | – |
| COc1ccc(C2=Nn3c(nnc3-c3cc(-c4ccccc4)nn3C)SC2C)cc1 (centres unmarked) [compound 10540] | 4.7 | 1.3 | – |

| SMILES | IC50 (STAT3; [3]) [µM] | IC50 (Cal33 cells; [4]) [µM] | other results |
| --- | --- | --- | --- |
| COc1ccc(C2=Nn3c(nnc3-c3cc(-c4ccccc4)n[nH]3)SC2C)cc1OC (centres unmarked) [compound 10495] | 7.6 | 13.1 | – |
| COc1ccc(C2=Nn3c(nnc3-c3cc(-c4ccccc4)n[nH]3)SC2C(C)C)cc1 (centres unmarked) [compound 10319] | 21.6 | 20 | – |
| CC(=O)n1nc(-c2nnc3n2N=C(c2ccc(Cl)c(Cl)c2)C(C)S3)c2c1CCC2 (centres unmarked) [compound 10458] | 22.7 | 4.5 | – |
| CC1Sc2nnc(-c3cc(-c4ccc(Cl)cc4)n[nH]3)n2N=C1c1ccccc1 (racemic) [compound 10174] | 5.7 | 35.5 | – |
| CC1Sc2nnc(-c3cc(-c4ccccc4)n[nH]3)n2N=C1c1ccccc1 (centres unmarked) [compound 10260] | 4.8 | 42.7 | – |
| CC1Sc2nnc(-c3[nH]nc4c3CCC4)n2N=C1c1ccc(C(F)(F)F)cc1 (centres unmarked) [compound 10470] | 24.4 | 1.4 | – |
| COc1ccc(C2=Nn3c(nnc3-c3nn(Cc4ccccc4)c4c3CCC4)SC2C)cc1 (centres unmarked) [compound 10439] | 7.6 | 1.7 | – |
| COc1ccc(C2=Nn3c(nnc3-c3ccccc3)SC2C)cc1 (centres unmarked) [UPCDC10352] | 27.6 | – | IC50 (STAT3; [5]): 27.6 µM; IC50 (Cal33 cells; [6]): 0.21 µM; IC50 (Cal33 cells; [7]): 0.21 µM |
| CCN(CC)c1ccc(C2=Nn3c(nnc3-c3cc(-c4ccccc4)n(C)n3)SC2C)cc1 (centres unmarked) [compound 10555] | 3.7 | 10.5 | – |
| COc1ccc(C2=Nn3c(nnc3-c3n[nH]c(-c4ccc(Cl)cc4)c3C)SC2C)cc1 (centres unmarked) [compound 10547] | 7.3 | 1.3 | – |
| CC1Sc2nnc(-c3[nH]nc4c3CCCC4)n2N=C1c1ccccc1 (racemic) [compound 10175] | 22.4 | 40.2 | – |
| CC1Sc2nnc(-c3cc(-c4ccccc4)n[nH]3)n2N=C1c1ccc(C(F)(F)F)cc1 (centres unmarked) [compound 10478] | 35.9 | 50 | – |
| COc1ccc(C2=Nn3c(nnc3-c3cc(-c4ccccc4)n[nH]3)SC2CC(=O)N2CCCC2)cc1 (centres unmarked) [compound 10426] | 9.1 | 20.5 | IC50 (STAT3; [8]): < 10 µM |
| Clc1ccc(C2=Nn3c(nnc3-c3cc(-c4ccccc4)n[nH]3)SC2)cc1Cl [1b] | – | – | IC50 (STAT1; Table 4): > 50 µM |
| COc1ccc(C2=Nn3c(nnc3-c3[nH]nc4c3CCC4)SC2C(C)C)cc1 (centres unmarked) [Cmpd 26] | – | – | IC50 (STAT1; [2]): > 50 µM; GI50 (Cal33 cells): 0.4 ± 0.1 µM |
| CC1(C)Sc2nnc(-c3cc(-c4ccc(Cl)cc4)n[nH]3)n2N=C1c1ccccc1 [compound 10268] | 38.2 | 50 | – |
| CC1Sc2nnc(-c3cc(-c4ccccc4)n[nH]3)n2N=C1c1ccccc1 (centres unmarked) [compound 10261] | 12.3 | 40 | – |
| C1=Nn2c(nnc2-c2[nH]nc3c2CCC3)SC1 [11a] | – | – | IC50 (STAT1; Table 4): > 50 µM; IC50 (STAT3; [1]): > 50 µM |
| c1ccc(C2=Nn3c(nnc3-c3cc(-c4ccccc4)n[nH]3)SC2)cc1 [7b] | – | – | IC50 (STAT1; Table 4): > 50 µM; IC50 (STAT3; [1]): 27 µM |

| SMILES | IC50 (STAT3; [3]) [µM] | IC50 (Cal33 cells; [4]) [µM] | other results |
| --- | --- | --- | --- |
| COc1ccc(C2=Nn3c(nnc3-c3[nH]nc4c3CCC4)SC2Cc2ccccc2)cc1 (centres unmarked) [compound 10320] | 19.5 | 0.83 | – |
| COc1ccc(C2=Nn3c(nnc3-c3cc(-c4ccc(F)cc4)n[nH]3)SC2C)cc1 (racemic) [compound 10204] | 4.2 | 33 | – |
| COc1ccc(C2=Nn3c(nnc3-c3[nH]nc4c3CCC4)SC2CC(C)C)cc1 (centres unmarked) [UPCDC10305] | 5.1 | – | IC50 (STAT3; [8]): < 10 µM; IC50 (STAT3; [5]): 5.14 µM; IC50 (Cal33 cells; [6]): 0.47 µM; IC50 (Cal33 cells; [7]): 0.47 µM |
| COc1ccc(C2=Nn3c(nnc3-c3cc(-c4ccccc4)nn3C(C)=O)SC2C)cc1 (centres unmarked) [compound 10480] | 6.3 | 30.4 | – |
| CC1Sc2nnc(-c3cc(-c4ccc(Cl)cc4)n[nH]3)n2N=C1c1ccc(Cl)c(Cl)c1 (centres unmarked) [compound 10537] | 16 | 7.6 | – |
| CCN(CC)CCC1Sc2nnc(-c3cc(-c4ccccc4)n[nH]3)n2N=C1c1ccc(OC)cc1 (centres unmarked) [compound 10380] | 8.8 | 3.7 | IC50 (STAT3; [8]): < 10 µM |
| COc1ccc(C2=Nn3c(nnc3-c3nn(C)c4c3CCC4)SC2C)cc1 (centres unmarked) [compound 10420] | 46.1 | 0.38 | – |
| Cc1ccc(C2=Nn3c(nnc3-c3cc(-c4ccccc4)n[nH]3)SC2C)cc1 (centres unmarked) [compound 10473] | 14.1 | 12 | – |
| c1ccc(-c2cc(-c3nnc4n3N=C(c3ccncc3)CS4)[nH]n2)cc1 [9b] | – | – | IC50 (STAT1; Table 4): > 50 µM; IC50 (STAT3; [1]): > 50 µM |
| CC(C)C1Sc2nnc(-c3[nH]nc4c3CCC4)n2N=C1c1ccc(Cl)c(Cl)c1 (racemic) [compound 10299] | 4.4 | 8.2 | IC50 (STAT3; [8]): < 10 µM |
| O=C(CC1Sc2nnc(-c3cc(-c4ccc(Cl)cc4)n[nH]3)n2N=C1c1ccccc1)N1CCCC1 (centres unmarked) [compound 10411] | 11.1 | 21.6 | – |
| COc1ccc(C2=Nn3c(nnc3-c3cc(-c4ccccc4)n[nH]3)SC2C)cc1 (centres unmarked) [compound 10511] | 7.6 | 28 | – |
| COCCC1Sc2nnc(-c3cc(-c4ccc(F)cc4)n[nH]3)n2N=C1c1ccc(OC)cc1 (centres unmarked) [compound 10374] | 8.5 | 14.4 | – |
| C1CCC(C2=Nn3c(nnc3-c3[nH]nc4c3CCC4)SC2)CC1 [13a] | – | – | IC50 (STAT1; Table 4): > 50 µM; IC50 (STAT3; [1]): > 30 µM |
| COc1ccc(C2=Nn3c(nnc3-c3[nH]nc4c3CCC4)SC2CCO)cc1 (centres unmarked) [compound 10403] | 49.2 | 0.93 | – |
| C1=Nn2c(nnc2-c2cc(-c3ccccc3)n[nH]2)SC1 [11b] | – | – | IC50 (STAT1; Table 4): > 50 µM; IC50 (STAT3; [1]): > 50 µM |
| COc1ccc(C2=Nn3c(nnc3-c3[nH]nc4c3CN(Cc3ccccc3)C4)SC2C)cc1 (centres unmarked) [compound 10512] | 27 | 4.6 | – |
| COc1ccc(C2=Nn3c(nnc3-c3[nH]nc4c3CCC4)SC2C)cc1OC (centres unmarked) [compound 10494] | 25.1 | 5.7 | – |
